In the NIST ThermoML archive (doi:10.1016/j.jct.2019.02.011):
Numbers after ± are expanded uncertainties.

Assay: xn = mol fraction of the nth substance listed
Conditions: Liquid, Vibrating tube method

COC(=O)OC [dimethyl carbonate] + CO
mass density [kg/m3]
Conditions | 100 kPa | 5000 kPa | 10000 kPa | 15000 kPa | 20000 kPa | 25000 kPa | 30000 kPa | 35000 kPa | 40000 kPa
303.15 K, x1 = 0.0253 | – | – | – | – | – | – | – | 825.6 ± 1.4 | 829 ± 1.4
303.15 K, x1 = 0.0503 | – | – | – | – | – | – | – | 839.12 ± 1.4 | 842.54 ± 1.4
303.15 K, x1 = 0.0745 | – | – | – | – | – | – | – | 851.58 ± 1.4 | 855.01 ± 1.4
303.15 K, x1 = 0.101 | – | – | – | – | – | – | – | 864.54 ± 1.4 | 867.99 ± 1.4
303.15 K, x1 = 0.1502 | – | – | – | – | – | – | – | 886.72 ± 1.4 | 890.21 ± 1.4
303.15 K, x1 = 0.2059 | – | – | – | – | – | – | – | 909.73 ± 1.4 | 913.3 ± 1.4
303.15 K, x1 = 0.25 | – | – | – | – | – | – | – | 926.34 ± 1.4 | 929.93 ± 1.4
303.15 K, x1 = 0.3004 | – | – | – | – | – | – | – | 943.76 ± 1.5 | 947.37 ± 1.5
303.15 K, x1 = 0.3426 | – | – | – | – | – | – | – | 957.21 ± 1.5 | 960.84 ± 1.5
303.15 K, x1 = 0.3984 | – | – | – | – | – | – | – | 973.63 ± 1.5 | 977.28 ± 1.5
303.15 K, x1 = 0.4514 | – | – | – | – | – | – | – | 987.95 ± 1.5 | 991.62 ± 1.5
303.15 K, x1 = 0.5054 | – | – | – | – | – | – | – | 1001.4 ± 1.5 | 1005.09 ± 1.5
303.15 K, x1 = 0.5509 | – | – | – | – | – | – | – | 1011.94 ± 1.5 | 1015.64 ± 1.5
303.15 K, x1 = 0.6002 | – | – | – | – | – | – | – | 1022.49 ± 1.5 | 1026.2 ± 1.5
303.15 K, x1 = 0.6469 | – | – | – | – | – | – | – | 1031.7 ± 1.5 | 1035.43 ± 1.5
303.15 K, x1 = 0.6993 | – | – | – | – | – | – | – | 1041.37 ± 1.5 | 1045.11 ± 1.5
303.15 K, x1 = 0.7496 | – | – | – | – | – | – | – | 1050.01 ± 1.5 | 1053.76 ± 1.5
303.15 K, x1 = 0.799 | – | – | – | – | – | – | – | 1058.05 ± 1.6 | 1061.82 ± 1.6
303.15 K, x1 = 0.837 | – | – | – | – | – | – | 1060.13 ± 1.6 | 1063.82 ± 1.6 | 1067.59 ± 1.6
303.15 K, x1 = 0.9093 | – | – | – | – | – | – | 1070.62 ± 1.6 | 1074.26 ± 1.6 | 1078.04 ± 1.6
303.15 K, x1 = 0.9239 | – | – | – | – | – | – | 1072.65 ± 1.6 | 1076.3 ± 1.6 | 1080.08 ± 1.6
303.15 K, x1 = 0.9575 | – | – | – | – | – | – | 1077.23 ± 1.6 | 1080.88 ± 1.6 | 1084.67 ± 1.6
303.15 K, x1 = 0.9861 | – | – | – | – | – | – | 1081.06 ± 1.6 | 1084.71 ± 1.6 | 1088.51 ± 1.6
303.15 K, x1 = 1 | – | – | – | – | – | – | 1082.9 ± 0.61 | 1086.6 ± 0.63 | 1090.4 ± 0.64
308.15 K, x1 = 0.0253 | 791.22 ± 1.4 | 795.98 ± 1.4 | 800.77 ± 1.4 | 805.37 ± 1.4 | 809.72 ± 1.4 | 814 ± 1.4 | 817.9 ± 1.4 | 821.58 ± 1.4 | 825.25 ± 1.4
308.15 K, x1 = 0.0503 | 804.54 ± 1.4 | 809.3 ± 1.4 | 814.1 ± 1.4 | 818.7 ± 1.4 | 823.06 ± 1.4 | 827.34 ± 1.4 | 831.25 ± 1.4 | 834.92 ± 1.4 | 838.6 ± 1.4
308.15 K, x1 = 0.0745 | 816.8 ± 1.4 | 821.56 ± 1.4 | 826.37 ± 1.4 | 831.02 ± 1.4 | 835.38 ± 1.4 | 839.68 ± 1.4 | 843.59 ± 1.4 | 847.26 ± 1.4 | 850.9 ± 1.4
308.15 K, x1 = 0.101 | 829.61 ± 1.4 | 834.41 ± 1.4 | 839.23 ± 1.4 | 843.89 ± 1.4 | 848.26 ± 1.4 | 852.56 ± 1.4 | 856.52 ± 1.4 | 860.19 ± 1.4 | 863.84 ± 1.4
308.15 K, x1 = 0.1502 | 851.5 ± 1.4 | 856.36 ± 1.4 | 861.2 ± 1.4 | 865.86 ± 1.4 | 870.28 ± 1.4 | 874.59 ± 1.4 | 878.57 ± 1.4 | 882.29 ± 1.4 | 885.94 ± 1.4
308.15 K, x1 = 0.2059 | 874.17 ± 1.4 | 879.02 ± 1.4 | 883.88 ± 1.4 | 888.55 ± 1.4 | 892.98 ± 1.4 | 897.3 ± 1.4 | 901.3 ± 1.4 | 905.01 ± 1.4 | 908.67 ± 1.4
308.15 K, x1 = 0.25 | 890.57 ± 1.4 | 895.46 ± 1.4 | 900.33 ± 1.4 | 905.01 ± 1.4 | 909.44 ± 1.4 | 913.77 ± 1.4 | 917.78 ± 1.4 | 921.49 ± 1.4 | 925.16 ± 1.4
308.15 K, x1 = 0.3004 | 907.81 ± 1.4 | 912.71 ± 1.4 | 917.59 ± 1.4 | 922.27 ± 1.4 | 926.71 ± 1.4 | 931.05 ± 1.4 | 935.06 ± 1.4 | 938.77 ± 1.4 | 942.45 ± 1.5
308.15 K, x1 = 0.3426 | 921.16 ± 1.4 | 926.05 ± 1.4 | 930.95 ± 1.4 | 935.63 ± 1.4 | 940.07 ± 1.4 | 944.37 ± 1.5 | 948.39 ± 1.5 | 952.1 ± 1.5 | 955.78 ± 1.5
308.15 K, x1 = 0.3984 | 937.46 ± 1.4 | 942.41 ± 1.4 | 947.31 ± 1.5 | 952 ± 1.5 | 956.44 ± 1.5 | 960.75 ± 1.5 | 964.78 ± 1.5 | 968.49 ± 1.5 | 972.13 ± 1.5
308.15 K, x1 = 0.4514 | 951.72 ± 1.5 | 956.66 ± 1.5 | 961.58 ± 1.5 | 966.27 ± 1.5 | 970.72 ± 1.5 | 975.04 ± 1.5 | 979.08 ± 1.5 | 982.78 ± 1.5 | 986.43 ± 1.5
308.15 K, x1 = 0.5054 | 965.11 ± 1.5 | 970.05 ± 1.5 | 974.93 ± 1.5 | 979.62 ± 1.5 | 984.08 ± 1.5 | 988.4 ± 1.5 | 992.45 ± 1.5 | 996.15 ± 1.5 | 999.81 ± 1.5
308.15 K, x1 = 0.5509 | 975.56 ± 1.5 | 980.5 ± 1.5 | 985.39 ± 1.5 | 990.08 ± 1.5 | 994.54 ± 1.5 | 998.87 ± 1.5 | 1002.92 ± 1.5 | 1006.62 ± 1.5 | 1010.28 ± 1.5
308.15 K, x1 = 0.6002 | 986.01 ± 1.5 | 990.95 ± 1.5 | 995.85 ± 1.5 | 1000.49 ± 1.5 | 1004.95 ± 1.5 | 1009.29 ± 1.5 | 1013.4 ± 1.5 | 1017.09 ± 1.5 | 1020.76 ± 1.5
308.15 K, x1 = 0.6469 | 995.19 ± 1.5 | 1000.13 ± 1.5 | 1005.03 ± 1.5 | 1009.68 ± 1.5 | 1014.14 ± 1.5 | 1018.48 ± 1.5 | 1022.55 ± 1.5 | 1026.24 ± 1.5 | 1029.87 ± 1.5
308.15 K, x1 = 0.6993 | 1004.82 ± 1.5 | 1009.76 ± 1.5 | 1014.62 ± 1.5 | 1019.27 ± 1.5 | 1023.74 ± 1.5 | 1028.03 ± 1.5 | 1032.11 ± 1.5 | 1035.8 ± 1.5 | 1039.42 ± 1.5
308.15 K, x1 = 0.7496 | 1013.47 ± 1.5 | 1018.4 ± 1.5 | 1023.27 ± 1.5 | 1027.93 ± 1.5 | 1032.35 ± 1.5 | 1036.65 ± 1.5 | 1040.72 ± 1.5 | 1044.41 ± 1.5 | 1048.05 ± 1.5
308.15 K, x1 = 0.799 | 1021.43 ± 1.5 | 1026.37 ± 1.5 | 1031.19 ± 1.5 | 1035.85 ± 1.5 | 1040.27 ± 1.5 | 1044.57 ± 1.5 | 1048.66 ± 1.5 | 1052.34 ± 1.5 | 1055.98 ± 1.6
308.15 K, x1 = 0.837 | 1027.27 ± 1.5 | 1032.2 ± 1.5 | 1037.04 ± 1.5 | 1041.64 ± 1.5 | 1046.06 ± 1.5 | 1050.37 ± 1.5 | 1054.46 ± 1.5 | 1058.14 ± 1.6 | 1061.73 ± 1.6
308.15 K, x1 = 0.9093 | 1037.72 ± 1.5 | 1042.65 ± 1.5 | 1047.49 ± 1.5 | 1052.1 ± 1.5 | 1056.52 ± 1.6 | 1060.79 ± 1.6 | 1064.88 ± 1.6 | 1068.56 ± 1.6 | 1072.16 ± 1.6
308.15 K, x1 = 0.9239 | 1039.75 ± 1.5 | 1044.68 ± 1.5 | 1049.52 ± 1.5 | 1054.13 ± 1.5 | 1058.56 ± 1.6 | 1062.82 ± 1.6 | 1066.87 ± 1.6 | 1070.55 ± 1.6 | 1074.15 ± 1.6
308.15 K, x1 = 0.9575 | 1044.31 ± 1.5 | 1049.24 ± 1.5 | 1054.08 ± 1.5 | 1058.69 ± 1.6 | 1063.12 ± 1.6 | 1067.39 ± 1.6 | 1071.43 ± 1.6 | 1075.12 ± 1.6 | 1078.72 ± 1.6
308.15 K, x1 = 0.9861 | 1048.07 ± 1.5 | 1053 ± 1.5 | 1057.85 ± 1.6 | 1062.46 ± 1.6 | 1066.89 ± 1.6 | 1071.16 ± 1.6 | 1075.26 ± 1.6 | 1078.94 ± 1.6 | 1082.54 ± 1.6
308.15 K, x1 = 1 | 1049.91 ± 0.56 | 1054.84 ± 0.56 | 1059.69 ± 0.57 | 1064.3 ± 0.58 | 1068.73 ± 0.59 | 1073 ± 0.6 | 1077.1 ± 0.61 | 1080.78 ± 0.62 | 1084.38 ± 0.63
